In the supplement of paper PMC11451515:

Key:
Conditions in all cases: 48 h
NOMO1 [1] = experiment: AUC of viability dose-response curve (% viability x log10 dose units); higher = less sensitive
Outline: (§1)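 Seeding of medium-adapted leukemia cells was at 500 or 1000 cells/well in 1536-well plates, followed by 48 h at 37°C with library compounds in DMSO at 11 threefold doses from 47 μM to 0.79 nM. CellTiter-Glo One luminescence was normalised per plate to DMSO and cell-free wells and fitted as a four-parameter log-logistic function of log10 dose. Area under the curve was integrated by trapezoidal rule, with curves exceeding full viability scaled and curves failing quality control removed.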

P12-Ichikawa [2] = experiment: as above
Outline: as §1

SEM cells [3] = experiment: as above
Outline: as §1

NOMO1 [4] = experiment: cell viability relative to DMSO control; higher = less cytotoxic
Outline: (§2)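 NOMO1 or SEM cells were plated at 500 cells/well and P12-Ichikawa cells at 1000 cells/well in 1536-well plates (5 μl), after each leukemia line had been adapted for at least four passages in each medium. Pin dosing delivered library compounds in DMSO at 11 threefold concentrations, 47 μM to 0.79 nM. CellTiter-Glo One luminescence was read after 48 h at 37°C. Viability is reported as a per-plate percentage of DMSO wells, with cell-free wells as background.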

P12-Ichikawa [5] = experiment: as above
Outline: as §2

SEM cells [6] = experiment: as above
Outline: as §2

NC/1=N/C(=O)C2=C(N1)[N](C=N2)[C@@H]3C[C@H](O)[C@@H](CO)C3=C
AUC of viability dose-response curve
Conditions | NOMO1 [1] | P12-Ichikawa [2] | SEM cells [3]
HPLM + 10% dialyzed FBS | 385 | 351 | 248
RPMI 5 mM glucose + 10% FBS | 423 | 342 | 272
RPMI 5 mM glucose + 10% dialyzed FBS | 378 | 331 | 200

COc1ccc(-c2ccc3ncc4c(c3c2)n(-c2ccc(N3CCNCC3)c(C(F)(F)F)c2)c(=O)n4C)cn1
cell viability [%]
Conditions | NOMO1 [4] | P12-Ichikawa [5] | SEM cells [6]
HPLM + 10% dialyzed FBS, 0.000781 µM | 97.7 | 99.5 | 72.5
HPLM + 10% dialyzed FBS, 0.00234 µM | 79.7 | 92.5 | 65.5
HPLM + 10% dialyzed FBS, 0.00702 µM | 57.1 | 79.1 | 54.5
HPLM + 10% dialyzed FBS, 0.0211 µM | 67 | 74.1 | 44.2
HPLM + 10% dialyzed FBS, 0.0632 µM | 51.5 | 72.5 | 37.2
HPLM + 10% dialyzed FBS, 0.19 µM | 45.9 | 48.5 | 31.8
HPLM + 10% dialyzed FBS, 0.569 µM | 47.4 | 48.9 | 31.2
HPLM + 10% dialyzed FBS, 1.71 µM | 24.6 | 40.1 | 4.63
HPLM + 10% dialyzed FBS, 5.12 µM | 4.81 | 30 | 4.31
HPLM + 10% dialyzed FBS, 15.4 µM | 3.74 | 4.22 | 3.49
HPLM + 10% dialyzed FBS, 46.1 µM | 2.4 | 3.22 | 2.31
RPMI 5 mM glucose + 10% FBS, 0.000781 µM | 105 | 81.7 | 95.8
RPMI 5 mM glucose + 10% FBS, 0.00234 µM | 100 | 73.2 | 77.7
RPMI 5 mM glucose + 10% FBS, 0.00702 µM | 90.4 | 72.3 | 60.3
RPMI 5 mM glucose + 10% FBS, 0.0211 µM | 79.7 | 64.2 | 55.9
RPMI 5 mM glucose + 10% FBS, 0.0632 µM | 70 | 59.4 | 45.1
RPMI 5 mM glucose + 10% FBS, 0.19 µM | 54.5 | 34.7 | 23.6
RPMI 5 mM glucose + 10% FBS, 0.569 µM | 49.1 | 22 | 21.5
RPMI 5 mM glucose + 10% FBS, 1.71 µM | 32.6 | 8.29 | 5.49
RPMI 5 mM glucose + 10% FBS, 5.12 µM | 32 | 6.08 | 5.48
RPMI 5 mM glucose + 10% FBS, 15.4 µM | 4.07 | 4.14 | 3.64
RPMI 5 mM glucose + 10% FBS, 46.1 µM | 3.17 | 4 | 2.49
RPMI 5 mM glucose + 10% dialyzed FBS, 0.000781 µM | 94.5 | 86.1 | 70
RPMI 5 mM glucose + 10% dialyzed FBS, 0.00234 µM | 78.3 | 91.5 | 73.5
RPMI 5 mM glucose + 10% dialyzed FBS, 0.00702 µM | 70.9 | 63 | 54.5
RPMI 5 mM glucose + 10% dialyzed FBS, 0.0211 µM | 70.5 | 65.8 | 46.5
RPMI 5 mM glucose + 10% dialyzed FBS, 0.0632 µM | 57 | 60.9 | 46
RPMI 5 mM glucose + 10% dialyzed FBS, 0.19 µM | 46.1 | 47.1 | 25.1
RPMI 5 mM glucose + 10% dialyzed FBS, 0.569 µM | 42.9 | 34 | 18.4
RPMI 5 mM glucose + 10% dialyzed FBS, 1.71 µM | 29.8 | 5.19 | 5.55
RPMI 5 mM glucose + 10% dialyzed FBS, 5.12 µM | 5.1 | 5.18 | 5.1
RPMI 5 mM glucose + 10% dialyzed FBS, 15.4 µM | 3.25 | 4.63 | 3.87
RPMI 5 mM glucose + 10% dialyzed FBS, 46.1 µM | 1.92 | 3.63 | 2.59

NOMO1 [1]
Conditions | AUC of viability dose-response curve
HPLM + 10% dialyzed FBS | 209
RPMI 5 mM glucose + 10% FBS | 255
RPMI 5 mM glucose + 10% dialyzed FBS | 218

CC(=O)O[C@@]1(CC[C@H]2[C@@H]3\C=C(Cl)/C4=C/C(=O)[C@@H]5C[C@@H]5[C@]4(C)[C@H]3CC[C@]12C)C(C)=O
cell viability [%]
Conditions | NOMO1 [4] | SEM cells [6]
HPLM + 10% dialyzed FBS, 0.000781 µM | 95.1 | 111
HPLM + 10% dialyzed FBS, 0.00234 µM | 124 | 120
HPLM + 10% dialyzed FBS, 0.00702 µM | 140 | 126
HPLM + 10% dialyzed FBS, 0.0211 µM | 137 | 125
HPLM + 10% dialyzed FBS, 0.0632 µM | 133 | 131
HPLM + 10% dialyzed FBS, 0.19 µM | 135 | 130
HPLM + 10% dialyzed FBS, 0.569 µM | 114 | 128
HPLM + 10% dialyzed FBS, 1.71 µM | 66.4 | 131
HPLM + 10% dialyzed FBS, 5.12 µM | 36 | 136
HPLM + 10% dialyzed FBS, 15.4 µM | 38.5 | 134
HPLM + 10% dialyzed FBS, 46.1 µM | 34.5 | 127
RPMI 5 mM glucose + 10% FBS, 0.000781 µM | – | 115
RPMI 5 mM glucose + 10% FBS, 0.00234 µM | – | 115
RPMI 5 mM glucose + 10% FBS, 0.00702 µM | – | 126
RPMI 5 mM glucose + 10% FBS, 0.0211 µM | – | 119
RPMI 5 mM glucose + 10% FBS, 0.0632 µM | – | 118
RPMI 5 mM glucose + 10% FBS, 0.19 µM | – | 144
RPMI 5 mM glucose + 10% FBS, 0.569 µM | – | 128
RPMI 5 mM glucose + 10% FBS, 1.71 µM | – | 116
RPMI 5 mM glucose + 10% FBS, 5.12 µM | – | 120
RPMI 5 mM glucose + 10% FBS, 15.4 µM | – | 135
RPMI 5 mM glucose + 10% FBS, 46.1 µM | – | 135

AUC of viability dose-response curve
Conditions | HPLM + 10% dialyzed FBS | RPMI 5 mM glucose + 10% FBS | RPMI 5 mM glucose + 10% dialyzed FBS
NOMO1 [1] | 364 | 322 | 360
SEM cells [3] | 464 | 450 | 442

C[S+](=O)([O-])c1cc(F)cc2c3c(n(Cc4ccc(Cl)cc4)c12)[C@@H](CC(=O)O)CC3
AUC of viability dose-response curve
Conditions | HPLM + 10% dialyzed FBS | RPMI 5 mM glucose + 10% FBS | RPMI 5 mM glucose + 10% dialyzed FBS
P12-Ichikawa [2] | 466 | 451 | 467
SEM cells [3] | 477 | 468 | 461

O=C(/C=C\n1cnc(-c2cc(C(F)(F)F)cc(C(F)(F)F)c2)n1)NNc1cnccn1
AUC of viability dose-response curve
Conditions | HPLM + 10% dialyzed FBS | RPMI 5 mM glucose + 10% FBS | RPMI 5 mM glucose + 10% dialyzed FBS
P12-Ichikawa [2] | 302 | 296 | 295
SEM cells [3] | 310 | 301 | 309

CNC(=O)c1c(-c2ccc(F)cc2)oc2cc(N(CCO)[S+](C)(=O)[O-])c(C3CC3)cc12
cell viability [%], SEM cells [6]
Conditions | HPLM + 10% dialyzed FBS | RPMI 5 mM glucose + 10% FBS | RPMI 5 mM glucose + 10% dialyzed FBS
0.000781 µM | 82.4 | 44.5 | 75.4
0.00234 µM | 117 | 71.1 | 111
0.00702 µM | 117 | 77.3 | 118
0.0211 µM | 110 | 69.1 | 106
0.0632 µM | 71.9 | 41.9 | 65.2
0.19 µM | 51.8 | 26.8 | 46.8
0.569 µM | 67.2 | 39.9 | 59.4
1.71 µM | 51.2 | 31.5 | 48
5.12 µM | 25.4 | 23.8 | 24.4
15.4 µM | 14.3 | 5.58 | 10.2
46.1 µM | 3.38 | 1.22 | 1

AUC of viability dose-response curve
Conditions | HPLM + 10% dialyzed FBS | RPMI 5 mM glucose + 10% FBS | RPMI 5 mM glucose + 10% dialyzed FBS
NOMO1 [1] | 395 | 412 | 425
P12-Ichikawa [2] | 382 | 407 | 404
